Reference: patent US6794544B2, “Method for the preparation of tetrahydrobenzothiepines” (Pharmacia Corporation, priority 2000, dated 2004)

Assay: Water uptake experiments (Dynamic Vapor Sorption, water sorption/desorption isotherms)
Assay type: physicochemical
Procedure: A dry sample of the crystalline form having a melting point or a decomposition point of about 278° C. to about 285° C. (i.e., Form 11) typically gains less than about 1% of its own weight when equilibrated under 80% relative humidity (RH) air at 25° C. […] For the present purposes, the term “essentially 0% RH” means less than about 1% RH. The term “equilibrated” means that the change in weight of a sample over time at a given relative humidity is less than 0.0003% ((dm/dt)/m0×100, where m is mass in mg, m0 is initial mass, and t is time in minutes).
Water sorption experiments are performed on a Dynamic Vapor Sorption (DVS) apparatus (DVS-1000 manufactured by Surface Measurements Systems, Inc.). Experiments are performed at 25° C. by initially drying the material of interest (about 10 mg sample) from 30% relative humidity (RH) (ambient room condition) to about 9% RH in a stepwise fashion (10% RH step) by purging with dry nitrogen until no further weight change was observed. The samples are then exposed to a stepwise (10% RH steps) increase in RH from about 0 to about 90% RH. Each successive step is initiated when the change in weight over time at the relative humidity was less than 0.0003% ((dm/dt)/m0×100, where m is mass in mg, m0 is initial mass, and t is time in minutes). […] The data are collected on a computer and analyzed using SMS′ proprietary MS-Excel macro interface software.

## CCCCC1(CCCC)CS(=O)(=O)c2ccc(N(C)C)cc2[C@@H](c2ccc(OCc3ccc(C[N+]45CCN(CC4)CC5)cc3)cc2)[C@H]1O [Form II, (4R,5R)-1-((4-(4-(3,3-dibutyl-7-(dimethylamino)-2,3,4,5-tetrahydro-4-hydroxy-1,1-dioxido-1-benzithiepin-5-yl)phenoxy)methyl)phenyl)methyl-4-aza-1-azoniabicyclo[2.2.2]octane chloride]
Dried at essentially 0% RH at about 25° C. under dry nitrogen, then equilibrated under about 80% RH air at about 25° C.
  weight gain of the sample (of its own weight): less than 1%
Dry sample equilibrated under 80% RH air at 25° C.
  hygroscopicity: essentially nonhygroscopic
